Test results as given in PMC12091851, “Replacing a Cereblon Ligand by a DDB1 and CUL4 Associated Factor 11 (DCAF11) Recruiter Converts a Selective Histone Deacetylase 6 PROTAC into a Pan‐Degrader” (Chemmedchem, 2025).

Molecular target: T1, HDAC6 (Homo sapiens, UniProt Q9UBN7)
T1 sequence (Q9UBN7 1-1215): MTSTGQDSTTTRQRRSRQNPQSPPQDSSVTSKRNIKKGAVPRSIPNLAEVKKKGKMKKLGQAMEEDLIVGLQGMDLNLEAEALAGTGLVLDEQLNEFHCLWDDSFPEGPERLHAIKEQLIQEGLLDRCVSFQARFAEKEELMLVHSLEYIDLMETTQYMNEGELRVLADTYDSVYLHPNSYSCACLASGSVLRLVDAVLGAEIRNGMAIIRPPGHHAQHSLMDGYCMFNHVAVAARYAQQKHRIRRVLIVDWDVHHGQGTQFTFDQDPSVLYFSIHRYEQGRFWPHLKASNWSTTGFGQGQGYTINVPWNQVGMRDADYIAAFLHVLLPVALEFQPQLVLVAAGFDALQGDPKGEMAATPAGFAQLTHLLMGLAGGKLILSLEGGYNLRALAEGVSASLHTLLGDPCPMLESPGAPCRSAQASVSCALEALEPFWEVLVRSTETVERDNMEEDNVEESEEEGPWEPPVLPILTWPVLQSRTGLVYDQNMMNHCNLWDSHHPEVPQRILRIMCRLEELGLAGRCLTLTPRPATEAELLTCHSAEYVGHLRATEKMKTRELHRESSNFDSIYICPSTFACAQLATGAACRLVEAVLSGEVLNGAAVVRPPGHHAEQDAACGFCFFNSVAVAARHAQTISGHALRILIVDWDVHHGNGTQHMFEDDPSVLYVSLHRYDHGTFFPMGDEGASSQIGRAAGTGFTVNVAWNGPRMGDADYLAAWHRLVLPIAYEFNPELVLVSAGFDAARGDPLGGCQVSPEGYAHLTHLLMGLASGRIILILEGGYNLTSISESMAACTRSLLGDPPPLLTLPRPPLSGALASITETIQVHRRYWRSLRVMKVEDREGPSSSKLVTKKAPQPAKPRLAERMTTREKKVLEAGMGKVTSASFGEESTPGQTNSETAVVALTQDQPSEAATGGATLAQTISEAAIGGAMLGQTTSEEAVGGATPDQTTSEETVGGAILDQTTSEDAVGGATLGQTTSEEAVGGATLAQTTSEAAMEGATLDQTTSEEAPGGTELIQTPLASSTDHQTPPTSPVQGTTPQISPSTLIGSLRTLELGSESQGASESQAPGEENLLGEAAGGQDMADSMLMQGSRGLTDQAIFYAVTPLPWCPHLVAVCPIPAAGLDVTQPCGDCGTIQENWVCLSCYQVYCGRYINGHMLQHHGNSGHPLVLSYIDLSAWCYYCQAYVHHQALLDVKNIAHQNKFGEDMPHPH
Assay: Immunoblot HDAC6 degradation in MM.1S cell lysates
Assay type: cell-based
Set-up: endogenous in cells; host or cells: MM.1S
Settings: MM1.S, MM.1S cells, 24 h, read-out: maximal degradation (Dmax) HDAC6
Protocol: Figure 6 Examination of HDAC isoform degradation. MM.1S cells were treated with the indicated compounds (10 μM) or vehicle (DMSO) for 24 h. HDAC1, 2, 4, and 6 levels were analyzed by immunoblotting. (A) Representative images from a total of n=3 biological replicates.
2.5. Aqueous Stability Assay
For stability testing in aqueous solution, a 10-fold concentrated DMSO solution of the respective compounds was diluted in DPBS to generate a 10 µM concentration (final DMSO content of 10%).
Samples of the aqueous solutions were taken after 0, 24, 48, and 72 h at room temperature and the amounts of the parental compound and potential fragments were monitored by HPLC gradient A (see 3.1 General Information). The peak area of the 0 h sample was used for normalization. All compounds were tested in duplicates and GraphPad Prim was used for evaluation and data visualization.
The cell lysis was performed as descripted in 3.2. Simple Western Immunoassay. Samples were denatured by Laemmli 2× Concentrate (Catalog# S3401-10VL, Sigma-Aldrich) for 5 min at 95 °C, and […]
Bio-Rad, Hercules, CA, USA). […]
6.1 (Bio-Rad) for quantification. […]
In vitro inhibitory activities against HDAC1, 2 , and 6 were measured using a previously published protocol.[3] In vitro inhibitory activities against HDAC4 were measured using a previously published protocol with slight modifications. […]

Dmax at 10 µM [%] | SMILES
71 to 76 | O=C(CCCCCCNC(=O)c1ccc(NC(=O)CCCCCCCCCCCN(C(=O)CCl)C(C(=O)NCc2ccccc2)c2ccc(Cl)c(Cl)c2)cc1)NO (centres unmarked) [Compound 1j]
26 | O=C(CCCCCCNC(=O)c1ccc(N(C(=O)CCl)C(C(=O)NCc2ccccc2)c2ccc(Cl)c(Cl)c2)cc1)NO (centres unmarked) [Compound 2]
